Patent US20110206638A1, “COMPOSITIONS AND METHODS FOR REDUCING THE MUTATION RATE OF VIRUSES” (priority 2010, published 2011)

Key:
[1] = system: subgenomic HCV replicon of genotype 1b (Con1S1179I), NS5A region; assay: NS5A sequencing of HCV RNA, nucleotide and amino acid substitution rates in Con1 replicon cells (Example 2); type: cell-based, Hepatitis C virus; conditions: for dn/ds / Ts/Tv / Percentage of sites showing positive selection / location of mutations in NS5A / Fold increase (Amino acid change per site) / Fold increase (Nt. change per site): 48 hrs; for dn/ds: SNAP, control 0.31; for Ts/Tv: control 3.3; for Percentage of sites showing positive selection: control 4.25%; for Amino acid change per site / Nt. change per site: Con1 replicon cells, once daily for 48 hrs, T7 baseline subtracted; for Nt. change per site: ethanol 0.5% v/v, BSO 20 μM, H2O2 100 μM, acetaldehyde 10 μM; for location of mutations in NS5A: SNAP plot against codons; for percentage of nucleotide substitutions A→C / percentage of nucleotide substitutions A→G / percentage of nucleotide substitutions A→U / percentage of nucleotide substitutions C→A / percentage of nucleotide substitutions C→G / percentage of nucleotide substitutions C→U / percentage of nucleotide substitutions G→A / percentage of nucleotide substitutions G→C / percentage of nucleotide substitutions G→U / percentage of nucleotide substitutions U→A / percentage of nucleotide substitutions U→C / percentage of nucleotide substitutions U→G: of all nt. substitutions in the group; for Fold increase (Amino acid change per site) / Fold increase (Nt. change per site): over control
Method: Huh7 cell clones (SgPC2 cells) supporting continuous replication of a subgenomic HCV replicon of genotype 1b (Con1S1179I sequence) were used (Choi J. et al. (2004) Hepatology 39:81-89; Blight K J et al. (2000) Science 290:1972). Subgenomic replicons support the HCV RNA genome replication by the viral replicase but no virus is formed. The in vitro transcription, transfection of the viral RNA, and Huh7 human hepatoma cell culture were performed as described (Choi J. et al. (2004) Hepatology 39:81-89; Blight K J et al. (2000) Science 290:1972). All biochemicals including ethanol (molecular biology grade), acetaldehyde, BSO, H2O2, dipyridal, and GSH ethyl ester were obtained from SigmaAldrich except PIH, which was synthesized according to published methods (Kicic A et al., (2001) Cancer 92: 3093-3110; Ponka P. et al., (1979) FEBS Lett 97: 317-321).
Total RNAs were collected using Trizol (Invitrogen). Then, the NS5A region (nt. 4612 to 6013 of Con1 replicon) was reverse transcribed/amplified with AccuScript High Fidelity RT-PCR System (Agilent). The reverse primer used for reverse transcription and PCR amplification was 5′-[…]-3′ (SEQ ID NO: 1), and the forward primer was 5′-[…]-3′ (SEQ ID NO: 2). The XbaI and HindIII restriction enzyme sites are underlined. The cDNA products were cloned into pUC19 via HindIII and XbaI sites and sequenced at the Joint Genome Institute (Livermore, Calif.) and University of California Berkeley Sequencing (Berkeley, Calif.). Sequences were aligned against Con1(S1179I) sequence, using BioEdit/MEGA 4.0 Molecular Evolutionary Genetics Analysis software. Cumulative synonymous and nonsynonymous mutations were computed using Synonymous Nonsynonomous Analysis Program (SNAP; www.hcv.lanl.gov). The […] ratio was calculated using SNAP. Amino acid substitution trends were analyzed by position with MutationCounter, a mutation counting program, developed for this project. The sequences were compared with 1,212 genotype 1b NS5A sequences pooled from the Lawrence Livermore HCV sequence database (www.hcv.lanl.gov) which included sequences from the European, Asian, and Russian databases. Sequences harboring gaps, undetermined nucleotides, or incomplete NS5A sequences were removed prior to the analysis.
To test whether ethanol can affect the HCV RNA sequence, Con1 replicon cells that support genotype 1b subgenomic HCV RNA replication were incubated with ethanol (0.5% v/v), BSO (20 μM), H2O2 (100 μM), or acetaldehyde (10 μM) once daily for 48 hrs with a change of the cell culture medium at the time of each treatment. Acetaldehyde and H2O2 are generated during hepatic metabolism of ethanol. BSO, by inhibiting GSH biosynthesis, mimics GSH depletion seen in hepatitis C patients. GSH participates in detoxification reactions that remove reactive species such as H2O2 and acetaldehyde. Thus, by decreasing GSH, BSO also amplifies the effects of endogenous ROS and RNS, allowing one to test the effects of endogenous ROS/RNS. Then, the RNA was collected, and the NS5A region corresponding to nt. 4612 to 6013 of Con1 replicon was reverse transcribed using AccuScript reverse transcriptase and amplified with PfuUltra (Agilent). PfuUltra is a high fidelity DNA polymerase with an error rate of 4.3×10^−9; AccuScript reverse transcriptase has an error rate of 1.61×10^−7. Then, the cDNA products were cloned into pUC19 and sequenced by the Sanger method.

Con1 replicon cells = assay: 8-OHG oxidative RNA damage in SgPC2 Con1 replicon cells (ELISA); type: cell-based, human; conditions: for 8-OH-G in Con1 replicon (SgPC2) cells, daily treatment for 2 weeks: 0.1% ethanol, 5 μM acetaldehyde; for 8-OH-G in Con1 replicon (SgPC2) cells, daily treatment for 2 weeks / fold increase in 8-OHG content over the control: 20 μM BSO; for 8-OH-G in SgPC2 cells within 2 days: 0.5% ethanol, BSO; for fold increase in 8-OHG content over the control: 48 hrs, 0.5% (v/v) ethanol, 250 μM NiCl2 daily
Method: Total RNA was isolated using Trizol (Invitrogen) and analyzed for 8-OH-guanosine (8-OH-G) by northwestern, as described (Shan X et al. (2003) J. Neurosci. 23:4913-4921). Briefly, RNA was size-fractionated by agarose gel electrophoresis, transferred to a nylon membrane, blocked with 1% BSA, incubated sequentially with monoclonal anti-8-OH-G/dG antibodies (QED Bioscience, Inc.) and then with goat anti-mouse HRP-conjugated secondary antibody (Santa Cruz Biotechnology), and signals were detected, using an ECL kit (Amersham). In addition, RNA was digested with nuclease P1 (Sigma, US Biological) and alkaline phosphatase (Promega) and analyzed for 8-OH-G content using RNA Damage Kit (Cell Biolabs, Inc.), following manufacturer's protocols.
(§1) Total RNA was isolated using Trizol (Invitrogen) and analyzed for 8-OHG by ELISA. Briefly, RNA was incubated with 10 U DNase I (GE Healthcare), 10 U nuclease P1 (Sigma or US Biological), and 10 U alkaline phosphatase (Promega) and analyzed for 8-OHG content with RNA Damage Kit (Cell Biolabs, Inc.) and 8-OHG standards, following manufacturer's protocols.

[2] = system: Huh7 cells transfected with JFH1 RNA; assay: 8-OHG oxidative RNA damage in Huh7 cells transfected with JFH1 RNA (ELISA); type: cell-based, human; conditions: 48 hr (0.5% ethanol, 20 μM BSO) and 2 weeks (0.1% ethanol, 20 μM BSO)
Method: as §1
HCV induces severe oxidative/nitrosative stress in the host by increasing the generation of reactive species. Thus, JFH1 strain of genotype 2a that supports complete replication cycle of HCV and produces infectious HCV in cell culture was used next to determine whether HCV was sufficient to induce oxidative RNA damage even in the absence of ethanol and BSO. Huh7 cells were transfected with JFH1 RNA and either exposed to 0.5% ethanol (v/v) or 20 μM BSO daily for 48 hrs, or to 0.1% ethanol (v/v) or 20 μM BSO with and without 5 μM dipyridyl or 1 mM GSH ester daily with a change of medium prior to each treatment for 2 weeks.

Structure (SMILES)	dn/ds [1]	Ts/Tv [1]	Percentage of sites showing positive selection [1] [%]	Amino acid change per site [1]	Nt. change per site [1]	location of mutations in NS5A [1]	percentage of nucleotide substitutions A→C [1] [percentage]	percentage of nucleotide substitutions A→G [1] [percentage]	percentage of nucleotide substitutions A→U [1] [percentage]	percentage of nucleotide substitutions C→A [1] [percentage]	percentage of nucleotide substitutions C→G [1] [percentage]	percentage of nucleotide substitutions C→U [1] [percentage]	percentage of nucleotide substitutions G→A [1] [percentage]	percentage of nucleotide substitutions G→C [1] [percentage]	percentage of nucleotide substitutions G→U [1] [percentage]	percentage of nucleotide substitutions U→A [1] [percentage]	percentage of nucleotide substitutions U→C [1] [percentage]	percentage of nucleotide substitutions U→G [1] [percentage]	Fold increase (Amino acid change per site) [1] [fold]	8-OH-G in Con1 replicon (SgPC2) cells, daily treatment for 2 weeks (Con1 replicon cells)	also measured
CCCCS(=N)(=O)CCC(N)C(=O)O [BSO, L-buthionine-S,R-sulfoximine]	0.72	3.3	12.3	3.24×10^−3 amino acid change per site	1.20×10^−3 nt. change per site	clustered in the C-terminal half of NS5A	1.28	24.36	2.56	3.85	5.13	8.97	16.67	3.85	3.85	0	29.49	0	11.6	significant increases	8-OH-G in SgPC2 cells within 2 days (Con1 replicon cells): increased; fold increase in 8-OHG content over the control (Con1 replicon cells): 23.4±1.5 fold; 8-OHG increased by HCV (JFH1) [2]: exacerbated
CCO [Ethanol, ethanol]	1.05	6.8	12.3	4.97 × 10^−3 amino acid change per site	1.71 × 10^−3 nt. change per site	clustered in the C-terminal half of NS5A	1.30	25.97	2.60	0	0	18.18	12.99	6.49	2.60	0	29.87	0	17.8	significant increases	Nt. change per site ([1]; listed as ethanol): 1.71×10^−3 nt. change per site; Amino acid change per site ([1]; listed as ethanol): 4.97×10^−3 amino acid change per site; Fold increase (Nt. change per site) [1]: 5.9 fold; Fold increase (Amino acid change per site) ([1]; listed as ethanol): ~18 fold; Fold increase (Nt. change per site) ([1]; listed as ethanol): about 6 fold; 8-OH-G in SgPC2 cells within 2 days (Con1 replicon cells): increased; fold increase in 8-OHG content over the control (Con1 replicon cells): 34.9±1.2 fold; 8-OHG increased by HCV (JFH1) [2]: exacerbated
